Experimental findings from patent publication US20170145000A1, “CANAGLIFLOZIN MONOHYDRATE AND ITS CRYSTALLINE FORMS, PREPARATION METHODS AND USES THEREOF” (Hangzhou Pushai Pharmaceutical Technology Co., Ltd., priority 2014, published 2017) are described below.

Holding throughout (assay type): physicochemical
Data set [1] can be described thus: repetition of prior art forms and test of their properties (stability in water, phase stability). The settings on record: prior art processes repeated by the inventors; competitive stability test in water. From the text: The above properties may lead to problems in their pharmaceutical formulations, including variations in active substance content, poor reproducibility, impurities increasing during storage, efficacy decreasing, and so on. Moreover, the known canagliflozin is amorphous.

A short description of data set [2]: competitive stability test in water at room temperature with Monohydrate Form HII (XRPD). The conditions noted are these: equal 250 mg samples of Form HII, known canagliflozin, Form A and Form hH1 mixed with 3 mL water, stirred 7 days. Here is the method: The competitive stability test among canagliflozin Monohydrate Form HII of the present invention, the known Canagliflozin, canagliflozin hemihydrate Form hH1 and canagliflozin Form A was performed in water at room temperature.
Conditions of the competitive stability test were as follows: take equal quantity (250 mg) samples of canagliflozin Monohydrate Form HII of the present invention, canagliflozin prepared in the preparation example 1 in the present invention, canagliflozin Form A prepared in the preparation example 2 in the present invention and canagliflozin hemihydrate Form hH1 prepared in the preparation 3 in the present invention, respectively, and mix the samples with 3 mL of water to form a suspension. The suspension was stirred for 7 days at room temperature and then XRPD characterization analysis was performed.

Data set [3] can be described thus: competitive stability test in water at room temperature with Monohydrate Form HI (XRPD). The settings on record: equal 250 mg samples of Form HI, known canagliflozin, Form A and Form hH1 mixed with 5 mL water, stirred 7 days. Here is the method:
The competitive stability test of canagliflozin Monohydrate Form HI of the present invention, the known canagliflozin, canagliflozin hemihydrate Form hH1 and canagliflozin Form A was performed in water at room temperature.
Conditions of the competitive stability test were as follows: take equal quantity (250 mg) samples of canagliflozin Monohydrate Form HI of the present invention, canagliflozin prepared in the preparation example 1, canagliflozin Form A prepared in the preparation example 2 and canagliflozin hemihydrate Form hH1 prepared in the preparation example 3 respectively, mix the samples with 5 mL of water to form a suspension. The suspension was stirred for 7 days at room temperature and then XRPD characterization analysis was performed.

The nature of data set [4]: storage in desiccator at room temperature and controlled relative humidity. The conditions noted are these: room temperature.

Each structure is given as a SMILES string.

Regarding `Cc1ccc([C@@H]2O[C@H](CO)[C@@H](O)[C@H](O)[C@H]2O)cc1Cc1ccc(-c2ccc(F)cc2)s1` [Cangaliflozin Form B], in data set [1], the “stability in water / phase stability of repeated prior art forms” value (shortened to “stability in water / phase stability”) is reported as “poor phase stability”.

For the molecule `Cc1ccc([C@@H]2O[C@H](CO)[C@@H](O)[C@H](O)[C@H]2O)cc1Cc1ccc(-c2ccc(F)cc2)s1` [canagliflozin Form A], the results for the “crystalline form after competitive stability test in water” value (“crystalline form … in water” for short) in data set [2] and in data set [3] were “transformed to canagliflozin Monohydrate Form HII” and “transformed to canagliflozin Monohydrate Form HI”, respectively. For the same molecule, the “stability in water / phase stability” value in data set [1] is on record as “not stable in water”.

As to `Cc1ccc([C@@H]2O[C@H](CO)[C@@H](O)[C@H](O)[C@H]2O)cc1Cc1ccc(-c2ccc(F)cc2)s1` [canagliflozin Monohydrate Form HI, canagliflozin monohydrate Form HI], in data set [3], the “crystalline form … in water” value was “maintained its original crystalline form”. Further, the “crystalline form after storage” value in data set [4] (desiccator, 10% to 90% RH, 4 months) was “remained unchanged”.

With `Cc1ccc([C@@H]2O[C@H](CO)[C@@H](O)[C@H](O)[C@H]2O)cc1Cc1ccc(-c2ccc(F)cc2)s1` [canagliflozin Monohydrate Form HII], in data set [2], the “crystalline form … in water” value was “maintained its original crystalline form”. Besides, in data set [4] (desiccators, relative humidities from 57% to 75%, continued storage for 4 months), the “crystalline form after storage” value was “remained unchanged”.

As for `Cc1ccc([C@@H]2O[C@H](CO)[C@@H](O)[C@H](O)[C@H]2O)cc1Cc1ccc(-c2ccc(F)cc2)s1.O` [canagliflozin hemihydrate Form hH1], the figures for the “crystalline form … in water” value in data set [2] and in data set [3] were “transformed to canagliflozin Monohydrate Form HII” and “transformed to canagliflozin Monohydrate Form HI”, respectively. In data set [1], the “stability in water / phase stability” value is “poor phase stability”.

Turning to `Cc1ccc([C@@H]2O[C@H](CO)[C@@H](O)[C@H](O)[C@H]2O)cc1Cc1ccc(-c2ccc(F)cc2)s1` [known canagliflozin, (1S)-1,5-anhydro-1-[3-[[5-(4-fluorophenyl)-2-thienyl]methyl]-4-methylphenyl]-D-glucitol], the “crystalline form … in water” value was “transformed to canagliflozin Monohydrate Form HII” in data set [2] and “transformed to canagliflozin Monohydrate Form HI” in data set [3]. In addition, the “stability in water / phase stability” value in data set [1] is on record as “not stable in water”. In data set [4] (desiccators, relative humidities from 57% to 75%, 1 day), the “crystalline form after storage” value is “transformed to canagliflozin Monohydrate Form HII”.
